In patent publication US9868692B2, “Compounds and compositions for intracellular delivery of therapeutic agents” (MODERNATX, Inc., priority 2015, dated 2018):
One block for each compound: values may come before it.

How the values were obtained:
[1] = Residual lipid level in liver of rats (UPLC-MS quantification); assay type: in vivo; details: rat; for % Lipid Remaining in liver, 48 h 2 mpk: assuming 300 g rat and 15 g liver; for concentration at 48 h: intravenous
Protocol: (§1) To pre-weighed tissues, Milli-Q water was added (900 μL water per 100 mg tissue). Tissues were homogenized using an Omni probe homogenizer until uniform. 50 μL of samples and matrix calibration standards were aliquoted into a 96-well plate. 50 μL of blank matrix for matrix blanks and control blanks were aliquoted. 400 μL IS spiking solution were manually added to all samples except matrix blanks. 400 μL of 50:50 ACN:IPA were manually added to matrix blanks. The plate was covered and the samples vortexed and centrifuged for 5 minutes at >3000 rpm. 200 μL of the samples were transferred into a clean 96-well plate for analysis. […] Detection was based on electrospray ionization (ESI) in positive mode using a Sciex API5500 Mass Spectrometer.
(§2) The expression of hEPO in rats intravenously administered a nanoparticle composition at a dose of 0.2 mpk or 2.0 mpk was measured at 6 hours. […] Liver and spleen levels represent the average values calculated for 3 rats in each group.
(§3) The expression of hEPO and lipid levels in the liver and spleen in rats intravenously administered a nanoparticle composition at a dose of 0.2 mpk was measured at various timepoints. […] Lipids were formulated according to the standard MC3 formulation described above.

[2] = Residual lipid level in spleen of rats (UPLC-MS quantification); assay type: in vivo; details: rat
Protocol: as §1, §2, §3

[3] = Encapsulation efficiency of RNA, QUANT-IT RIBOGREEN RNA assay; assay type: physicochemical; details: Table 1A formulations
From the text: The efficiency of encapsulation of a therapeutic and/or prophylactic describes the amount of therapeutic and/or prophylactic that is encapsulated or otherwise associated with a nanoparticle composition after preparation, relative to the initial amount provided. The encapsulation efficiency is desirably high (e.g., close to 100%). The encapsulation efficiency may be measured, for example, by comparing the amount of therapeutic and/or prophylactic in a solution containing the nanoparticle composition before and after breaking up the nanoparticle composition with one or more organic solvents or detergents. Fluorescence may be used to measure the amount of free therapeutic and/or prophylactic (e.g., RNA) in a solution. For the nanoparticle compositions described herein, the encapsulation efficiency of a therapeutic and/or prophylactic may be at least 50%, for example 50%, 55%, 60%, 65%, 70%, 75%, 80%, 85%, 90%, 91%, 92%, 93%, 94%, 95%, 96%, 97%, 98%, 99%, or 100%. In some embodiments, the encapsulation efficiency may be at least 80%. In certain embodiments, the encapsulation efficiency may be at least 90%.
For nanoparticle compositions including an RNA, a QUANT-IT™ RIBOGREEN® RNA assay (Invitrogen Corporation Carlsbad, Calif.) can be used to evaluate the encapsulation of an RNA by the nanoparticle composition. The samples are diluted to a concentration of approximately 5 μg/mL in a TE buffer solution (10 mM Tris-HCl, 1 mM EDTA, pH 7.5). 50 μL of the diluted samples are transferred to a polystyrene 96 well plate and either 50 μL of TE buffer or 50 μL of a 2% Triton X-100 solution is added to the wells. The plate is incubated at a temperature of 37° C. for 15 minutes. The RIBOGREEN® reagent is diluted 1:100 in TE buffer, and 100 μL of this solution is added to each well. The fluorescence intensity can be measured using a fluorescence plate reader (Wallac Victor 1420 Multilablel Counter; Perkin Elmer, Waltham, Mass.) at an excitation wavelength of, for example, about 480 nm and an emission wavelength of, for example, about 520 nm. The fluorescence values of the reagent blank are subtracted from that of each of the samples and the percentage of free RNA is determined by dividing the fluorescence intensity of the intact sample (without addition of Triton X-100) by the fluorescence value of the disrupted sample (caused by the addition of Triton X-100).

[4] = Particle size, polydispersity index (and zeta potential) of nanoparticle compositions, Zetasizer Nano ZS; assay type: physicochemical; details: Table 1A formulations
From the text: Nanoparticle compositions may be characterized by a variety of methods. For example, microscopy (e.g., transmission electron microscopy or scanning electron microscopy) may be used to examine the morphology and size distribution of a nanoparticle composition. Dynamic light scattering or potentiometry (e.g., potentiometric titrations) may be used to measure zeta potentials. Dynamic light scattering may also be utilized to determine particle sizes. Instruments such as the Zetasizer Nano ZS (Malvern Instruments Ltd, Malvern, Worcestershire, UK) may also be used to measure multiple characteristics of a nanoparticle composition, such as particle size, polydispersity index, and zeta potential.
A Zetasizer Nano ZS (Malvern Instruments Ltd, Malvern, Worcestershire, UK) can be used to determine the particle size, the polydispersity index (PDI) and the zeta potential of the nanoparticle compositions in 1×PBS in determining particle size and 15 mM PBS in determining zeta potential.

[5] = liver, 0.2 mg/kg, 0.2 mpk, 48 h, average of 3 rats, read-out: Liver level
[6] = liver, 2 mg/kg, 2 mpk, 48 h, average of 3 rats, read-out: Liver level
[7] = intravenous, 0.2 mg/kg, 0.2 mpk, 48 h, average of 3 rats, read-out: Spleen level
[8] = intravenous, 2 mg/kg, 2 mpk, 48 h, average of 3 rats, read-out: Spleen level
[9] = liver, iv, 0.2 mg/kg, 0.2 mpk, 48 hours, read-out: Liver level
[10] = liver, iv, 2 mg/kg, 2 mpk, 48 hours, read-out: Liver level
[11] = iv, 0.2 mg/kg, 0.2 mpk, 48 hours, read-out: Spleen level
[12] = iv, 2 mg/kg, 2 mpk, 48 hours, read-out: Spleen level

- % Lipid Remaining in liver, 48 h 2 mpk ([1]; 2 mpk, 48 h): 14%
Structure (SMILES): CCCCCCCCCN(CCO)CCCCCCCC(=O)OC(CCCCCCCC)CCCCCCCC [Compound 3, Heptadecan-9-yl 8-((2-hydroxyethyl)(nonyl)amino)octanoate]

- % Lipid Remaining in liver, 48 h 2 mpk ([1]; 2 mpk, 48 h): 0.016%
Structure (SMILES): CCCCCC/C=C\COC(=O)CCCCCCCN(CCO)CCCCCCCC(=O)OC(CCCCCCCC)CCCCCCCC [Compound 24, Heptadecan-9-yl (Z)-8_((2-hydroxyethyl)(8-(non-2-en-1-yloxy)-8-oxooctyl)amino)octanoate]

- concentration at 0.25 h ([1]; liver, iv, 0.2 mg/kg, 0.2 mpk, 0.25 h): 12000 ng/g
- concentration at 0.5 h ([1]; liver, iv, 0.2 mg/kg, 0.2 mpk, 0.5 h): 16400 ng/g
- concentration at 1 h ([1]; liver, iv, 0.2 mg/kg, 0.2 mpk, 1 h): 17900 ng/g
- concentration at 2 h ([1]; liver, iv, 0.2 mg/kg, 0.2 mpk, 2 h): 11700 ng/g
- concentration at 4 h ([1]; liver, iv, 0.2 mg/kg, 0.2 mpk, 4 h): 6690 ng/g
- concentration at 8 h ([1]; liver, iv, 0.2 mg/kg, 0.2 mpk, 8 h): 2360 ng/g
- concentration at 24 h ([1]; liver, iv, 0.2 mg/kg, 0.2 mpk, 24 h): 199 ng/g
- concentration at 48 h ([1]; liver, iv, 0.2 mg/kg, 0.2 mpk, 48 h, read-out: Lipid level in liver): 12000 ng/g
- concentration at 0.25 h ([2]; iv, 0.2 mg/kg, 0.2 mpk, 0.25 h): 4040 ng/g
- concentration at 0.5 h ([2]; iv, 0.2 mg/kg, 0.2 mpk, 0.5 h): 6880 ng/g
- concentration at 1 h ([2]; iv, 0.2 mg/kg, 0.2 mpk, 1 h): 8590 ng/g
- concentration at 2 h ([2]; iv, 0.2 mg/kg, 0.2 mpk, 2 h): 13700 ng/g
- concentration at 4 h ([2]; iv, 0.2 mg/kg, 0.2 mpk, 4 h): 20400 ng/g
- concentration at 8 h ([2]; iv, 0.2 mg/kg, 0.2 mpk, 8 h): 10800 ng/g
- concentration at 24 h ([2]; iv, 0.2 mg/kg, 0.2 mpk, 24 h): 2020 ng/g
- concentration at 48 h ([2]; iv, 0.2 mg/kg, 0.2 mpk, 48 h, read-out: Lipid level in spleen): 1550 ng/g
Structure (SMILES): CCCCCCCCCCCOC(=O)CCCCCN(CCO)CCCCCCCC(=O)OC(CCCCCCCC)CCCCCCCC [Compound 25, Heptadecan-9-yl 8-((2-hydroxyethyl)(6-oxo-6-(undecyloxy)hexyl)amino)octanoate]

- % Lipid Remaining in liver, 48 h 2 mpk ([1]; 2 mpk, 48 h): 20%
Structure (SMILES): CCCCCCCCCOC(=O)CCCN(CCO)CCCCCCCC(=O)OC(CCCCCCCC)CCCCCCCC [Compound 26, Heptadecan-9-yl 8-((2-hydroxyethyl)(4-(nonyloxy)-4-oxobutyl)amino) octanoate]

- concentration at 48 h [1, 5]: 49.6 ng/g
- concentration at 48 h [1, 6]: 665 ng/g
- concentration at 48 h [2, 7]: 268 ng/g
- concentration at 48 h [2, 8]: 551 ng/g
Structure (SMILES): CCCCCCCCC(CCCCCCCC)OC(=O)CCCCCCCN(CCO)CCCCCCCC(=O)OCC1CC1CCCCCC (centres unmarked) [Compound 28, Heptadecan-9-yl 8-((8-((2-hexylcyclopropyl)methoxy)-8-oxooctyl)(2-hydroxyethyl)amino)octanoate]

- % Lipid Remaining in liver, 48 h 2 mpk ([1]; 2 mpk, 48 h): <0.01%
Structure (SMILES): CCCCCCCCCOC(=O)CCCCCCCN(CCO)CCCCCCCOC(=O)C(CCCCCCCC)CCCCCCCC [Compound 30, 7-((2-Hydroxyethyl)(8-(nonyloxy)-8-oxooctyl)amino)heptyl 2-octyldecanoate]

- concentration at 48 h [1, 6]: 103 ng/g
- concentration at 48 h [2, 7]: 115 ng/g
- concentration at 48 h [2, 8]: 287 ng/g
Structure (SMILES): CCCCCCCCCOC(=O)CCCCCCCN(CCO)CCCCCCCC(=O)OC(CCCCC)CCCCCCCC (centres unmarked) [Compound 33, nonyl 8-((2-hydroxyethyl)(8-oxo-8-(tetradecan-6-yloxy)octyl)amino) octanoate]

- concentration at 48 h [1, 9]: 5450 ng/g
- concentration at 48 h [1, 10]: 34500 ng/g
- concentration at 48 h [2, 11]: 0.31
- concentration at 48 h [2, 12]: 0.21
Structure (SMILES): CCCCCCCCC(C)OC(=O)CCCCCCCN(CCO)CCCCCCCC(=O)OC(CCCCCCCC)CCCCCCCC (centres unmarked) [Compound 48, decan-2-yl 8-((8-(heptadecan-9-yloxy)-8-oxooctyl)(2-hydroxyethyl)amino)octanoate]

- concentration at 48 h [1, 9]: 5820 ng/g
- concentration at 48 h [1, 10]: 79200 ng/g
- concentration at 48 h [2, 11]: 0.22
- concentration at 48 h [2, 12]: 0.17
Structure (SMILES): CCCCCCCCC(CCC)OC(=O)CCCCCCCN(CCO)CCCCCCCC(=O)OC(CCCCCCCC)CCCCCCCC (centres unmarked) [Compound 50, dodecan-4-yl 8-((8-(heptadecan-9-yloxy)-8-oxooctyl)(2-hydroxyethyl)amino)octanoate]

- concentration at 48 h [1, 5]: 4810 ng/g
- concentration at 48 h [1, 6]: 47000 ng/g
- concentration at 48 h [2, 7]: 1180 ng/g
- concentration at 48 h [2, 8]: 201000 ng/g
Structure (SMILES): CCCCCCCCC(CCCCCCCC)OC(=O)CCCCCCCN(CCO)CCCC(=O)OCCCCCC [Compound 53, heptadecan-9-yl 8-((4-(hexyloxy)-4-oxobutyl)(2-hydroxyethyl)amino) octanoate]

- concentration at 48 h [1, 5]: 6070 ng/g
- concentration at 48 h [1, 6]: 56100 ng/g
- concentration at 48 h [2, 7]: 6360 ng/g
- concentration at 48 h [2, 8]: 49400 ng/g
Structure (SMILES): CCCCCCCCC(CCCCCCCC)OC(=O)CCCCCCCN(CCO)CCCC(=O)OCCCCCCC [Compound 54, heptadecan-9-yl 8-((4-(heptyloxy)-4-oxobutyl)(2-hydroxyethyl)amino) octanoate]

- EE (%) [3]: 97.2%
- PDI [4]: 0.11
Structure (SMILES): CCCC/C=C\CCC(CC/C=C\CCCC)OC(=O)CCCCCCCN(CCO)CCCCCC(=O)OCCCCCCCCCCC [Compound 61, (5Z,12Z)-heptadeca-5,12-dien-9-yl 8-((2-hydroxyethyl)(6-oxo-6-(undecyloxy)hexyl)amino)octanoate]

- PDI [4]: 0.11
Structure (SMILES): CCCCCCCCC(CCCCCCCC)OC(=O)CCCCCCCN(CCO)CCCC(=O)OC(CCCCC)CCCCCCCC (centres unmarked) [Compound 71, Heptadecan-9-yl 8-((2-hydroxyethyl)(4-oxo-4-(tetradecan-6-yloxy)butyl)amino)octanoate]

- PDI [4]: 0.12
Structure (SMILES): CCCCCCCCCOC(=O)CCCCCCCN(CCCCCCCC(=O)OC(CCCCCCCC)CCCCCCCC)CCCNC(=O)NC [Compound 112, Heptadecan-9-yl 8-((3-(3-methylureido)propyl)(8-(nonyloxy)-8-oxooctyl)amino)octanoate]

- PDI [4]: 0.19
Structure (SMILES): CCCCCCCCCOC(=O)CCCCCCCN(CCO)CCCCCCC(=O)OCC(CCCCCCCC)CCCCCCCC [Compound 143, Nonyl 8-((2-hydroxyethyl)(7-((2-octyldecyl)oxy)-7-oxoheptyl)amino)octanoate]

- PDI [4]: 0.1
Structure (SMILES): CCCCCCCCCOC(=O)CCCCCCCN(CCCCCCCC(=O)OC(CCCCCCCC)CCCCCCCC)CCCN/C(=N/C#N)N(C)C [Compound 168, Heptadecan-9-yl (Z)-8-((3-(2-cyano-3,3-dimethylguanidino)propyl)(8-(nonyloxy)-8-oxooctyl)amino)octanoate]

- PDI [4]: 0.2
Structure (SMILES): CCCCCCCCCOC(=O)CCCCCCCN(CCCCCCCC(=O)OC(CCCCCCCC)CCCCCCCC)CCCOC(=O)NC [Compound 175, Heptadecan-9-yl 8-((3-((methylcarbamoyl)oxy)propyl)(8-(nonyloxy)-8-oxooctyl)amino)octanoate]
